{
  "source": "patent US20060153908A1",
  "about": "“Spherical pellet formulations” (priority 2002, published 2006)",
  "origin": "cited, not measured here",
  "details": "in water",
  "note": "Where a name gives a salt, the structure may show the parent alone.",
  "data": [
    {"smiles": "COc1cccc(C2(O)CCCCC2CN(C)C)c1", "note": "(single isomer, unassigned) [Tramadol hydrochloride, (1R,2R or 1S,2S)-2-[(dimethylamino)methyl]-1-(3-methoxyphenyl)-cyclohexanol]", "values": [
      {"measurement": "water solubility", "result": "very water-soluble"}
    ]}
  ]
}
